Molecules are shown by their SMILES. Values after ≈ are worked out from the molar mass of the structure shown. Where a name gives a salt, the structure may show the parent alone. Read-outs that look alike come from different tables or passages of the source.

Holding throughout (format): cell-based
For test [1], the system named is wild-type E. coli A-1261. Description: MIC against wild-type E. coli A-1261 with or without alkaline phosphatase or esterase. Particulars: Escherichia coli. On the procedure:
Minimal Inhibitory Concentrations (MICs; mg/L) were determined in cation-adjusted Mueller-Hinton Broth by a microdilution method following the description given in “Methods for Dilution Antimicrobial Susceptibility Tests for Bacteria that Grow Aerobically”, Approved standard, 7th ed., Clinical and Laboratory Standards Institute (CLSI) Document M7-A7, Wayne, Pa., U.S.A. (2006). The compound of Example 31 was tested against wild-type E. coli A-1261 in the absence of alkaline phosphatase, in the presence of an alkaline phosphatase and in the presence of an esterase. The corresponding antibacterial test results are given in Table 2 hereafter (MICs in mg/L).

Test [2] relates to E. coli ATCC25922. Description: Bacterial growth minimal inhibitory concentration, microdilution in cation-adjusted Mueller-Hinton Broth (CLSI M7-A7). Particulars: for MIC: Escherichia coli. On the procedure: (§1) Minimal Inhibitory Concentrations (MICs; mg/L) were determined in cation-adjusted Mueller-Hinton Broth by a microdilution method following the description given in “Methods for Dilution Antimicrobial Susceptibility Tests for Bacteria that Grow Aerobically”, Approved standard, 7th ed., Clinical and Laboratory Standards Institute (CLSI) Document M7-A7, Wayne, Pa., U.S.A. (2006).
(§2) All Example compounds were tested against several Gram-positive and Gram-negative bacteria. […] K. pneumoniae A-651 is a multiply-resistant strain (in particular quinolone-resistant), while E. coli ATCC25922 and P. aeruginosa ATCC27853 are quinolone-sensitive strains.

Test [3] deals with K. pneumoniae A-651. The test is described as above. Conditions: for MIC: Klebsiella pneumoniae. On the procedure:
as §1, §2

Test [4] deals with P. aeruginosa ATCC27853. The description is as above. Particulars: for MIC: Pseudomonas aeruginosa. As to the method:
as §1, §2

[5] abbreviates: ATCC25922, quinolone-sensitive strain, read-out: MIC for E. coli ATCC25922.
[6] abbreviates: A651, multiply-resistant strain (in particular quinolone-resistant), read-out: MIC for K. Pneumoniae A-651.
Where [7] appears, read: ATCC27853, quinolone-sensitive strain, read-out: MIC for P. aeruginosa ATCC27853.

On to `C[C@@](CCn1cnc2cc(C#CC#CC3(COP(=O)(O)O)CC3)ccc2c1=O)(C(=O)NO)S(C)(=O)=O` [Example 31, (R)-(1-((3-(4-(hydroxyamino)-3-methyl-3-(methylsulfonyl)-4-oxobutyl)-4-oxo-3,4-dihydroquinazolin-7-yl)buta-1,3-diyn-1-yl)cyclopropyl)methyl dihydrogen phosphate], for which the MIC in test [1] (alkaline phosphatase 2 i.U./mL, read-out: MIC for E. coli A-1261 In the presence of an alkaline phosphatase (2 i.U./mL)) is 0.5 µg/mL; in test [1] (esterase 10 i.U./mL, read-out: MIC for E. coli A-1261 In the presence of an esterase (10 i.U./mL)), over 16 µg/mL; in test [1] (no alkaline phosphatase or esterase, read-out: MIC for E. coli A-1261 In the absence of alkaline phosphatase or esterase), over 16 µg/mL.

With `CN(C)CC(=O)OCC1(c2ccc(C#Cc3ccc4c(=O)n(CC[C@](C)(C(=O)NO)S(C)(=O)=O)cnc4c3)cc2)CC1.Cl` [Example 22], in test [2] (quinolone-sensitive strain), the “MIC for E. coli ATCC25922” value amounted to 0.5 µg/mL. The “MIC for K. Pneumoniae A-651” value in test [3] (multiply-resistant strain (in particular quinolone-resistant)) was 4 µg/mL. Also, the “MIC for P. aeruginosa ATCC27853” value in test [4] (quinolone-sensitive strain) was 16 µg/mL.

For the compound `CC(C)(N)C#CC#Cc1ccc2c(=O)n(CC[C@](C)(C(=O)NO)S(C)(=O)=O)cnc2c1` [Example 7, (R)-4-(7-(5-amino-5-methylhexa-1,3-diyn-1-yl)-4-oxoquinazolin-3(4H)-yl)-N-hydroxy-2-methyl-2-(methylsulfonyl)butanamide formate], the MIC in test [2] (ATCC25922, read-out: MIC for E. coli ATCC25922) is 1 µg/mL; in test [3] (A651, read-out: MIC for K. Pneumoniae A-651), 4 µg/mL; in test [4] (ATCC27853, read-out: MIC for P. aeruginosa ATCC27853), 2 µg/mL.

`CC(C)(O)C#CC#Cc1cc2ncn(CC[C@](C)(C(=O)NO)S(C)(=O)=O)c(=O)c2cc1F` [Example 29, (R)-4-(6-fluoro-7-(5-hydroxy-5-methylhexa-1,3-diyn-1-yl)-4-oxoquinazolin-3(4H)-yl)-N-hydroxy-2-methyl-2-(methylsulfonyl)butanamide]: the MIC in test [2] (setting [5]) was 1 µg/mL (≈ 2.16 µM); in test [3] (setting [6]), 1 µg/mL (≈ 2.16 µM); in test [4] (setting [7]), 2 µg/mL (≈ 4.32 µM).

For `C[C@@](CCn1cnc2cc(C#CC#CCC3(O)COC3)c(F)cc2c1=O)(C(=O)NO)S(C)(=O)=O` [Example 35, (R)-4-(6-fluoro-7-(5-(3-hydroxyoxetan-3-yl)penta-1,3-diyn-1-yl)-4-oxoquinazolin-3(4H)-yl)-N-hydroxy-2-methyl-2-(methylsulfonyl)butanamide], the MIC in test [2] (setting [5]), in test [3] (setting [6]) and in test [4] (setting [7]) was 4 µg/mL (≈ 8.14 µM) each time.

The values are drawn from patent US9796686B2, “Antibacterial quinazoline-4(3H)-one derivatives” (priority 2014, dated 2017).
